# Source: US8211646B1, “Methods of treating ovarian cancer by modulating SnoN” (University of South Florida, priority 2008, dated 2012)
# Key:
# Assay type in all cases: cell-based
# HSP27 = assay: Western analysis of HSP27; conditions: HEY, 18 hours As2O3
# Experimental: Proteins were resolved on an 8%, 12%, or 15% SDS-PAGE gel (as appropriate) and electrophoretically transferred to polyvinyldifluoride (PVDF) membranes. After blocking with 5% (w/v) milk in TBST (Tris-Buffered Saline containing 0.1% Tween-20) for one hour at room temperature, membranes were incubated with primary antibodies (at appropriate dilution) overnight at 4° C., followed by extensive washing and incubation for 1 hour with the appropriate horseradish peroxidase-conjugated secondary antibodies (BioRad, Hercules, Calif.). Blots were washed extensively. A rabbit polyclonal EVI1 antibody was obtained (1:3000 dilution, St. Jude's Children's Hospital, Memphis, Tenn.). SnoN rabbit polyclonal (1:1000 dilution), PML, and p21 SMURF2 rabbit polyclonal (1:500 dilution), MRP1 mouse monoclonal (1:500 dilution) and GAPDH mouse monoclonal (1:250 dilution) antibodies were obtained from Santa Cruz Biotechnology (Santa Cruz, Calif.). TGFβRII rabbit polyclonal (1:1000 dilution) antibody was obtained from Strategic Diagnostics (Newark, Del.). Smad2/3 rabbit polyclonal (1:1000 dilution), Beclin-1 rabbit polyclonal (1:1000 dilution), AKT rabbit polyclonal (1:1000 dilution), TAK1 rabbit polyclonal (1:1000 dilution), PARP rabbit polyclonal (1:1000 dilution), Beclin-1 rabbit polyclonal (1:1000 dilution), caspase-3 rabbit polyclonal (1:1000) which detects the pro-caspase form, and ATG5 rabbit polyclonal (1:1000 dilution), LC3-II rabbit polyclonal (1:1000 dilution) antibodies were obtained from Cell Signaling Technology (Danvers, Mass.). […]
# (§1) The clinical inhibitors As2O3, geldanamycin (17-AAG) (dissolved in dimethylsulfoxide [DMSO]), and MG132 (dissolved in DMSO) were obtained from Sigma-Aldrich (St. Louis, Mo.), Fisher Scientific (Pittsburgh, Pa.), and Alexis Biochemicals (Farmingdale, N.Y.), respectively. […] After the appropriate incubation time (6 or 18 hours), cell lysates were collected, protein quantified, and SDS-PAGE/western analysis was performed. In addition, for selected studies, RNA was isolated, quantified, and used for qPCR analysis.
# SnoN RNA = assay: qPCR of SnoN RNA levels in ovarian cell lines; conditions: 5 μM As2O3, 18 hours
# Experimental: RNA was isolated using the RNeasy Mini Kit (Qiagen, Valencia, Calif.) from normal, benign, stage I-IV ovarian patient samples and quantitative PCR was performed. A one-step RT-PCR Taqman master mix from Applied Biosystems (Foster City, Calif.) and primers for genes in the 3q26.2 amplicon were obtained using Genebank sequences as well as from Assays on Demand (Hs00180524_m1 (SnoN/SkiL)), with the following primers and probe sets.
# Primers/probe sequences for SnoN (Hs00180524_m1), TGFβRII (Hs00234253_m1), and LC3 (Hs00261291_m1) were obtained from Applied Biosystems (Assays by Design).
# mRNA levels were determined using the One-Step-Plus Applied Biosystems Detection System or ABI PRISM 7700 Sequence Detection System using β-actin as a reference. PCR conditions were as follows: stage I: 48° C. for 30 min; stage II: 95° C. for 10 min; stage III: [40 cycles] 95° C. for 15 s followed by 60° C. for 1 min Using the correlative method, RNA-fold change in expression was calculated as Ct of gene—Ct of β-actin to generate ΔCt from which ΔCt of the normal sample was subtracted. These values were then converted to log2 values.
# as §1, with “respectively. N-acetyl-L-cysteine (NAC; dissolved in media) and Bortezomib (PS-341; dissolved in DMSO) were obtained from Fisher Scientific. 3-Methyladenine (3-MA; dissolved in media) was obtained from MP Biomedicals (Solon, Ohio). Tiron (4,5-Dihydroxy-1,3-benzenedisulfonic acid, dissolved in media) was obtained from Fisher Scientific. zVAD-fmk (dissolved in DMSO) and bafilomycin A (dissolved in DMSO) was obtained from Axxora LLC (San Diego, Calif.).” for “respectively.”
# SnoN = assay: Western analysis of SnoN protein levels; conditions: for concentration at which induction of SnoN occurred: 18 hours
# Experimental: Proteins were resolved on an 8%, 12%, or 15% SDS-PAGE gel (as appropriate) and electrophoretically transferred to polyvinyldifluoride (PVDF) membranes. After blocking with 5% (w/v) milk in TBST (Tris-Buffered Saline containing 0.1% Tween-20) for one hour at room temperature, membranes were incubated with primary antibodies (at appropriate dilution) overnight at 4° C., followed by extensive washing and incubation for 1 hour with the appropriate horseradish peroxidase-conjugated secondary antibodies (BioRad, Hercules, Calif.). Blots were washed extensively. A rabbit polyclonal EVI1 antibody was obtained (1:3000 dilution, St. Jude's Children's Hospital, Memphis, Tenn.). SnoN rabbit polyclonal (1:1000 dilution), PML, and p21 SMURF2 rabbit polyclonal (1:500 dilution), MRP1 mouse monoclonal (1:500 dilution) and GAPDH mouse monoclonal (1:250 dilution) antibodies were obtained from Santa Cruz Biotechnology (Santa Cruz, Calif.). TGFβRII rabbit polyclonal (1:1000 dilution) antibody was obtained from Strategic Diagnostics (Newark, Del.). Smad2/3 rabbit polyclonal (1:1000 dilution), Beclin-1 rabbit polyclonal (1:1000 dilution), AKT rabbit polyclonal (1:1000 dilution), TAK1 rabbit polyclonal (1:1000 dilution), PARP rabbit polyclonal (1:1000 dilution), Beclin-1 rabbit polyclonal (1:1000 dilution), caspase-3 rabbit polyclonal (1:1000) which detects the pro-caspase form, and ATG5 rabbit polyclonal (1:1000 dilution), LC3-II rabbit polyclonal (1:1000 dilution) antibodies were obtained from Cell Signaling Technology (Danvers, Mass.). The HSP27 mouse monoclonal (1:1000 dilution) antibody was obtained from Stressgen (Ann Arbor, Mich.). Blots were developed using chemiluminescence substrates (Amersham Piscataway, N.J. or BioRad, Hercules, Calif.). Monoclonal PAI-1 antibody was obtained from BD Pharmingen. PSMAD2, total SMAD2/3, p-ERK, p-AKT, and total AKT antibodies were obtained from Cell Signaling Technology. A monoclonal antibody against Arkadia was obtained from Abnova (Taiwan).
# Densitometric analysis was performed using the HP Scanjet 5590 and the Image J program (Image Processing and Analysis in Java, NIH Image Software). Bands were selected and the intensity values were normalized to those for GAPDH. The values are presented as fold-changes relative to control siRNA treated cells.
# The clinical inhibitors As2O3, geldanamycin (17-AAG) (dissolved in dimethylsulfoxide [DMSO]), and MG132 (dissolved in DMSO) were obtained from Sigma-Aldrich (St. Louis, Mo.), Fisher Scientific (Pittsburgh, Pa.), and Alexis Biochemicals (Farmingdale, N.Y.), respectively. N-acetyl-L-cysteine (NAC; dissolved in media) and Bortezomib (PS-341; dissolved in DMSO) were obtained from Fisher Scientific. 3-Methyladenine (3-MA; dissolved in media) was obtained from MP Biomedicals (Solon, Ohio). Tiron (4,5-Dihydroxy-1,3-benzenedisulfonic acid, dissolved in media) was obtained from Fisher Scientific. zVAD-fmk (dissolved in DMSO) and bafilomycin A (dissolved in DMSO) was obtained from Axxora LLC (San Diego, Calif.). Bovine catalase was obtained from Sigma-Aldrich. HBED and Mn TBAP was obtained from ENZO Life Sciences (Farmingdale, N.Y.). Ovarian cells were plated in 6-well plates at 250,000 cells per well and grown in complete medium. […] For control cells, DMSO (a final concentration of <0.5%) was added to compare appropriately to drugs dissolved in DMSO. After the appropriate incubation time (6 or 18 hours), cell lysates were collected, protein quantified, and SDS-PAGE/western analysis was performed. In addition, for selected studies, RNA was isolated, quantified, and used for qPCR analysis.
substance,measurement,setting,value
Arsenic trioxide [As2O3],HSP27 expression,HSP27,increased
same,effect on SnoN RNA,SnoN RNA,little effect
same,SnoN/SkiL protein levels,"SnoN; HEY and OVCA429, 18 hours, increasing doses",significantly increased
same,concentration at which induction of SnoN occurred,SnoN; HEY and SKOV3 cells,> 25 µM
same,time of As2O3 treatment at which induction of SnoN was seen,"SnoN; HEY, time course",9 h
same,concentration at which induction of SnoN occurred,SnoN; T80 cells,10 µM
